Reference: publication PMC12566046, “Arylpiperazinyl-Benzocycloheptapyrrole-Carboxamides Endowed with Dual Anticancer and Antiviral Activities” (Molecules, 2025)

How the values were obtained:
[1] = test system: SW-620 (colon cancer cell line); test: NCI-60 single-dose assay; type: cell-based, human; settings: Homo sapiens, SW-620, read-out: growth inhibition (GI%) and cytotoxicity (negative values)
From the text: (§1) We first evaluated the cytotoxic activity of tricyclic-pyrrole carboxamides 1–20 using the NCI-60 cell line panel, representing nine different human cancers: leukemia, melanoma, and cancers of the lung, colon, central nervous system (CNS), ovary, kidney, prostate, and breast (the one-dose graph for compounds 1–20 is reported in Supplementary Materials, Figures S43–S62). Compounds 1, 5, 10, 11, 17, and 20 satisfied pre-determined threshold inhibition criteria in a minimum number of cell lines; therefore, they were also tested in the full five-dose assay (Figures S63–S68 in the Supplementary Materials).

M14 (melanoma cell line) = test: NCI-60 single-dose assay; type: cell-based, human; settings: Homo sapiens, M14, read-out: growth inhibition (GI%) and cytotoxicity (negative values)
From the text: as §1

[2] = test system: UACC-62 (melanoma cell line); test: NCI-60 single-dose assay; type: cell-based, human; settings: Homo sapiens, UACC-62, read-out: growth inhibition (GI%) and cytotoxicity (negative values)
From the text: as §1

[3] = test system: COLO 205 (colon cancer cell line); test: NCI-60 single-dose assay; type: cell-based, human; settings: Homo sapiens, COLO 205, read-out: growth inhibition (GI%) and cytotoxicity (negative values)
From the text: as §1

[4] = test system: MOLT-4 (leukemia cell line); test: NCI-60 single-dose assay; type: cell-based, human; settings: Homo sapiens, MOLT-4, read-out: growth inhibition (GI%) and cytotoxicity (negative values)
From the text: as §1

[5] = test system: MALME-3M (melanoma cell line); test: NCI-60 single-dose assay; type: cell-based, human; settings: Homo sapiens, Malme-3M, read-out: growth inhibition (GI%) and cytotoxicity (negative values)
From the text: as §1

[6] = test system: HCC-2998 (colon cancer cell line); test: NCI-60 single-dose assay; type: cell-based, human; settings: for inhibition at 10 µM: Homo sapiens, HCC 2998, read-out: growth inhibition (GI%) and cytotoxicity (negative values)
From the text: as §1

[7] = test system: HCT-15 (colon cancer cell line); test: NCI-60 single-dose assay; type: cell-based, human; settings: Homo sapiens, HCT-15, read-out: growth inhibition (GI%) and cytotoxicity (negative values)
From the text: as §1

[8] = test system: LOX IMVI (melanoma cell line); test: NCI-60 single-dose assay; type: cell-based, human; settings: Homo sapiens, LOX IMVI, read-out: growth inhibition (GI%) and cytotoxicity (negative values)
From the text: as §1

[9] = test system: EKVX (non-small cell lung cancer cell line); test: NCI-60 single-dose assay; type: cell-based, human; settings: Homo sapiens, read-out: growth inhibition (GI%) and cytotoxicity (negative values)
From the text: as §1

[10] = test system: MDA-MB-435 (melanoma cell line); test: NCI-60 single-dose assay; type: cell-based, human; settings: Homo sapiens, MDA-MB-435, read-out: growth inhibition (GI%) and cytotoxicity (negative values)
From the text: as §1

[11] = test system: SK-MEL-28 (melanoma cell line); test: NCI-60 single-dose assay; type: cell-based, human; settings: Homo sapiens, SK-MEL-28, read-out: growth inhibition (GI%) and cytotoxicity (negative values)
From the text: as §1

[12] = test system: RPMI-8226 (leukemia cell line); test: NCI-60 single-dose assay; type: cell-based, human; settings: Homo sapiens, RPMI-8226, read-out: growth inhibition (GI%) and cytotoxicity (negative values)
From the text: as §1

[13] = test system: MCF-7 (breast cancer cell line); test: NCI-60 single-dose assay; type: cell-based, human; settings: Homo sapiens, MCF7, read-out: growth inhibition (GI%) and cytotoxicity (negative values), MCF-7, 10^−5 M
From the text: as §1

[14] = test system: UACC-257 (melanoma cell line); test: NCI-60 single-dose assay; type: cell-based, human; settings: Homo sapiens, UACC-257, read-out: growth inhibition (GI%) and cytotoxicity (negative values)
From the text: as §1

[15] = test system: CCRF-CEM (leukemia cell line); test: NCI-60 single-dose assay; type: cell-based, human; settings: Homo sapiens, read-out: growth inhibition (GI%) and cytotoxicity (negative values)
From the text: as §1

[16] = test system: HT29 (colon cancer cell line); test: NCI-60 single-dose assay; type: cell-based, human; settings: Homo sapiens, HT-29, read-out: growth inhibition (GI%) and cytotoxicity (negative values)
From the text: as §1

[17] = test system: KM12 (colon cancer cell line); test: NCI-60 single-dose assay; type: cell-based, human; settings: Homo sapiens, KM12, read-out: growth inhibition (GI%) and cytotoxicity (negative values)
From the text: as §1

[18] = test system: SK-MEL-2 (melanoma cell line); test: NCI-60 single-dose assay; type: cell-based, human; settings: Homo sapiens, SK-MEL-2, read-out: growth inhibition (GI%) and cytotoxicity (negative values)
From the text: as §1

SR (leukemia cell line) = test: NCI-60 single-dose assay; type: cell-based, human; settings: Homo sapiens, read-out: growth inhibition (GI%) and cytotoxicity (negative values)
From the text: as §1

[19] = test system: HL-60(TB) (leukemia cell line); test: NCI-60 single-dose assay; type: cell-based, human; settings: Homo sapiens, HL-60, read-out: growth inhibition (GI%) and cytotoxicity (negative values)
From the text: as §1

[20] = test system: HCT-116 (colon cancer cell line); test: NCI-60 single-dose assay; type: cell-based, human; settings: Homo sapiens, HCT-116, read-out: growth inhibition (GI%) and cytotoxicity (negative values)
From the text: as §1

[21] = test system: IAV strain A/PR/8/34 (H1N1); test: microbe, parasite or virus in culture; settings: Influenza A virus, MDCK, read-out: IAV/MDCK EC50
[22] = test system: MDA-MB-468 (breast cancer cell line); test: NCI-60 single-dose assay; type: cell-based, human; settings: Homo sapiens, MDA-MB-468, read-out: growth inhibition (GI%) and cytotoxicity (negative values)
From the text: as §1

[23] = test system: BT-549 (breast cancer cell line); test: NCI-60 single-dose assay; type: cell-based, human; settings: Homo sapiens, BT-549, read-out: growth inhibition (GI%) and cytotoxicity (negative values)
From the text: as §1

[24] = test system: UO-31 (renal cancer cell line); test: NCI-60 single-dose assay; type: cell-based, human; settings: Homo sapiens, UO-31, read-out: growth inhibition (GI%) and cytotoxicity (negative values)
From the text: as §1

[25] = test system: MDA-MB-231/ATCC (breast cancer cell line); test: NCI-60 single-dose assay; type: cell-based, human; settings: Homo sapiens, MDA-MB-231, read-out: growth inhibition (GI%) and cytotoxicity (negative values)
From the text: as §1

[26] = test system: RXF 393 (renal cancer cell line); test: NCI-60 single-dose assay; type: cell-based, human; settings: Homo sapiens, RXF 393, read-out: growth inhibition (GI%) and cytotoxicity (negative values)
From the text: as §1

[27] = test system: NCI-H226 (non-small cell lung cancer cell line); test: NCI-60 single-dose assay; type: cell-based, human; settings: Homo sapiens, NCI-H226, read-out: growth inhibition (GI%) and cytotoxicity (negative values)
From the text: as §1

[28] = test system: SN12C (renal cancer cell line); test: NCI-60 single-dose assay; type: cell-based, human; settings: Homo sapiens, read-out: growth inhibition (GI%) and cytotoxicity (negative values)
From the text: as §1

[29] = test system: NCI-H23 (non-small cell lung cancer cell line); test: NCI-60 single-dose assay; type: cell-based, human; settings: Homo sapiens, NCI-H23, read-out: growth inhibition (GI%) and cytotoxicity (negative values)
From the text: as §1

[30] = test system: NCI-H460 (non-small cell lung cancer cell line); test: NCI-60 single-dose assay; type: cell-based, human; settings: Homo sapiens, NCI-H460, read-out: growth inhibition (GI%) and cytotoxicity (negative values)
From the text: as §1

[31] = test system: CAKI-1 (renal cancer cell line); test: NCI-60 single-dose assay; type: cell-based, human; settings: Homo sapiens, CAKI-1, read-out: growth inhibition (GI%) and cytotoxicity (negative values)
From the text: as §1

[32] = test system: 786-0 (renal cancer cell line); test: NCI-60 single-dose assay; type: cell-based, human; settings: Homo sapiens, 786-0, read-out: growth inhibition (GI%) and cytotoxicity (negative values)
From the text: as §1

SMILES | inhibition at 10 µM [1] [%] | inhibition at 10 µM (M14 (melanoma cell line)) [%] | inhibition at 10 µM [2] [%] | inhibition at 10 µM [3] [%] | inhibition at 10 µM [4] [%] | inhibition at 10 µM [5] [%] | inhibition at 10 µM [7] [%] | inhibition at 10 µM [8] [%] | inhibition at 10 µM [10] [%] | inhibition at 10 µM [11] [%] | inhibition at 10 µM [12] [%] | inhibition at 10 µM [13] [%] | inhibition at 10 µM [14] [%] | inhibition at 10 µM [15] [%] | inhibition at 10 µM [16] [%] | inhibition at 10 µM [17] [%] | inhibition at 10 µM [18] [%] | inhibition at 10 µM (SR (leukemia cell line)) [%] | inhibition at 10 µM [19] [%] | inhibition at 10 µM [20] [%] | other results
O=C(NCCN1CCN(c2ccccc2)CC1)c1c(Cl)[nH]c2c1CCCc1ccccc1-2 [Compound 12, 2-Chloro-N-(2-(4-phenylpiperazin-1-yl)ethyl)-1,4,5,6-tetrahydrobenzo[6,7]cyclohepta[1,2-b]pyrrole-3-carboxamide] | < 60 | < 60 | < 60 | < 60 | < 60 | < 60 | < 60 | < 60 | < 60 | < 60 | < 60 | 60.9 | < 60 | < 60 | 65.5 | < 60 | < 60 | 78.7 | 67.2 | 65.8 | inhibition at 10 µM [6]: < 60%; inhibition at 10 µM [9]: 72.3%; EC50 [21]: 3.49 µM
O=C(NCCN1CCN(c2ccccc2Cl)CC1)c1c(Cl)[nH]c2c1CCCc1ccccc1-2 [Compound 14] | < 60 | < 60 | < 60 | < 60 | < 60 | < 60 | < 60 | < 60 | < 60 | < 60 | 60.9 | < 60 | < 60 | < 60 | < 60 | < 60 | < 60 | < 60 | 71.7 | 66.5 | inhibition at 10 µM [6]: < 60%; inhibition at 10 µM [9]: 72.7%; inhibition at 10 µM [22]: 82.4%; inhibition at 10 µM [23]: < 60%; inhibition at 10 µM [24]: 63.6%; inhibition at 10 µM [25]: < 60%
COc1ccccc1N1CCN(CCNC(=O)c2c(Cl)[nH]c3c2CCCc2ccccc2-3)CC1 [Compound 15] | 60.1 | 84.8 | < 60 | < 60 | 76.5 | 70.1 | 66.4 | 60.6 | < 60 | < 60 | 70.1 | 73 | 67 | < 60 | 79.4 | < 60 | < 60 | 95.5 | 86.6 | 65.2 | inhibition at 10 µM [26]: < 60%; growth inhibition (GI%) and cytotoxicity (negative values) ([6]; human): −18.77%; inhibition at 10 µM [27]: < 60%; inhibition at 10 µM [28]: < 60%; inhibition at 10 µM [29]: < 60%; inhibition at 10 µM [30]: < 60%; inhibition at 10 µM [9]: 81.7%; inhibition at 10 µM [22]: 94.8%; inhibition at 10 µM [31]: 61%; inhibition at 10 µM [23]: 66.5%; inhibition at 10 µM [24]: 63.6%; inhibition at 10 µM [32]: < 60%; inhibition at 10 µM [25]: < 60%; EC50 [21]: 17.7 µM
O=C(NCCN1CCN(c2ccc(Cl)cc2)CC1)c1c(Cl)[nH]c2c1CCCc1ccccc1-2 [Compound 13] | < 60 | < 60 | < 60 | < 60 | 61.7 | < 60 | < 60 | < 60 | < 60 | < 60 | 67.4 | < 60 | < 60 | < 60 | 69.2 | < 60 | < 60 | 70.7 | 69.6 | < 60 | inhibition at 10 µM [6]: < 60%; inhibition at 10 µM [22]: 95.3%; inhibition at 10 µM [23]: < 60%; inhibition at 10 µM [25]: < 60%; EC50 [21]: 41.3 µM
